Experiments:
[1] = system: HCT116-mock-RNA-KO; assay: Compounds cell killing in HCT116 isogenic pair (CellTiter-Glo, 6 days), mock-KO (MTAP wildtype) cells; type: cell-based; conditions: Homo sapiens, HCT-116, 144 h, Cell Titer-Glo, 0-10 μM
Text: (§1) HCT116 cell line (ATCC, CCL-247) was isolated from the colon of an adult with colon cancer. It has a mutation in codon 13 of the ras proto-oncogene and can be used as a positive control for PCR assays of mutation in this codon. HCT116-MTAP-KO was knocked-out-MTAP-gene based HCT116, and a single clone was passed for this assay. HCT116-mock-RNA-KO was knocked-out-mock-gene based HCT116 with MTAP wildtype genotype. The base medium for HCT116 isogenic pair is RPMI 1640, HEPES (Gibco, 22400105). To make the complete growth medium, add the following components to the base medium: fetal bovine serum to a final concentration of 10% (Gibco, 10099-141C). The cell line was grown in a humidified 5% CO2 atmosphere at 37° C. and regularly tested for the presence of mycoplasma with MycoAlert™ PLUS Mycoplasma Detection Kit (Lonza, LT07-710).
(§2) • Seed HCT116-mock-RNA-KO (4E2/well) or HCT116-MTAP-KO (4E2/well) cells into a 96-well plate (Greiner: 655090), 100 µL/well. • Incubate at 37° C., 5% CO2, overnight. • Add 50 μL fresh growth-medium containing serial dilution of compounds for a final compound concentration of 0-10 μM to each well. • Incubate at 37° C., 5% CO2, 6 days. • The cell viability detected by Cell Titer-Glo (Promega, G7573). Add 70 μL of CellTiter-Glo® reagent in each well. • Incubate at room temperature for 10 minutes to stabilize luminescent signal. • Analyze with Microplate Reader (TECAN, SPARK) and fit IC50 using Prism® 9.

[2] = system: HCT116-MTAP-KO; assay: Compounds cell killing in HCT116 isogenic pair (CellTiter-Glo, 6 days), MTAP-KO cells; type: cell-based; conditions: Homo sapiens, HCT-116, 144 h, Cell Titer-Glo, 0-10 μM
Text: as §1, §2

| SMILES | IC50 [1] | IC50 [2] |
| --- | --- | --- |
| C[C@H]1CCC[C@@H](c2ccc(C(F)(F)F)cn2)N1C(=O)C1(c2ccc3c(=O)[nH]nc(CN)c3c2)CC1 (racemic) [Example 24, (±)-4-(aminomethyl)-6-(1-((2S,6S)-2-methyl-6-(5-(trifluoromethyl)pyridin-2-yl)piperidine-1-carbonyl)cyclopropyl)phthalazin-1(2H)-one] | > 10000 nM | 5260 nM |
| NCc1n[nH]c(=O)c2ccc(C3(C(=O)N(Cc4ccc(C(F)(F)F)cn4)C4CCCc5cccnc54)CC3)cc12 (stereo not drawn) [Example 1, 1-(4-(aminomethyl)-1-oxo-1,2-dihydrophthalazin-6-yl)-N-(5,6,7,8-tetrahydroquinolin-8-yl)-N-((5-(trifluoromethyl)pyridin-2-yl)methyl)cyclopropane-1-carboxamide] | > 10000 nM | 98 nM |
| NCc1n[nH]c(=O)c2ccc(C3(C(=O)N(Cc4ccc(C(F)(F)F)cn4)[C@@H]4CCCc5cccnc54)CC3)cc12 [Example 2A, (R)-1-(4-(aminomethyl)-1-oxo-1,2-dihydrophthalazin-6-yl)-N-(5,6,7,8-tetrahydroquinolin-8-yl)-N-((5-(trifluoromethyl)pyridin-2-yl)methyl)cyclopropane-1-carboxamide] | 3680 nM | 98 nM |
| NCc1n[nH]c(=O)c2ccc(C3(C(=O)N(Cc4ccc(C(F)(F)F)cn4)[C@H]4CCCc5cccnc54)CC3)cc12 [Example 2B, (S)-1-(4-(aminomethyl)-1-oxo-1,2-dihydrophthalazin-6-yl)-N-(5,6,7,8-tetrahydroquinolin-8-yl)-N-((5-(trifluoromethyl)pyridin-2-yl)methyl)cyclopropane-1-carboxamide] | > 10000 nM | > 10000 nM |
| NCc1n[nH]c(=O)c2ccc(C3(C(=O)N(Cc4ccc(-c5c(Cl)cccc5Cl)cn4)C4CCCc5cccnc54)CC3)cc12 (stereo not drawn) [Example 3, 1-(4-(aminomethyl)-1-oxo-1,2-dihydrophthalazin-6-yl)-N-((5-(2,6-dichlorophenyl)pyridin-2-yl)methyl)-N-(5,6,7,8-tetrahydroquinolin-8-yl)cyclopropane-1-carboxamide] | 3870 nM | 57 nM |
| NCc1n[nH]c(=O)c2ccc(C3(C(=O)N(Cc4ccc(-c5c(Cl)cccc5Cl)cn4)[C@@H]4CCCc5cccnc54)CC3)cc12 [Example 4A, (R)-1-(4-(aminomethyl)-1-oxo-1,2-dihydrophthalazin-6-yl)-N-((5-(2,6-dichlorophenyl)pyridin-2-yl)methyl)-N-(5,6,7,8-tetrahydroquinolin-8-yl)cyclopropane-1-carboxamide] | 2950 nM | 85 nM |
| NCc1n[nH]c(=O)c2ccc(C3(C(=O)N(Cc4ccc(-c5c(Cl)cccc5Cl)cn4)[C@H]4CCCc5cccnc54)CC3)cc12 [Example 4B, (S)-1-(4-(aminomethyl)-1-oxo-1,2-dihydrophthalazin-6-yl)-N-((5-(2,6-dichlorophenyl)pyridin-2-yl)methyl)-N-(5,6,7,8-tetrahydroquinolin-8-yl)cyclopropane-1-carboxamide] | 5910 nM | 1540 nM |
| CC1(C)COc2nc(CN(C(=O)C3(c4ccc5c(=O)[nH]nc(CN)c5c4)CC3)C3CCCc4cccnc43)ccc21 (stereo not drawn) [Example 5, 1-(4-(aminomethyl)-1-oxo-1,2-dihydrophthalazin-6-yl)-N-((3,3-dimethyl-2,3-dihydrofuro[2,3-b]pyridin-6-yl)methyl)-N-(5,6,7,8-tetrahydroquinolin-8-yl)cyclopropane-1-carboxamide] | > 10000 nM | 707 nM |
| CC(C)(O)c1ccc(CN(C(=O)C2(c3ccc4c(=O)[nH]nc(CN)c4c3)CC2)C2CCCc3cccnc32)nc1 (stereo not drawn) [Example 6, 1-(4-(aminomethyl)-1-oxo-1,2-dihydrophthalazin-6-yl)-N-((5-(2-hydroxypropan-2-yl)pyridin-2-yl)methyl)-N-(5,6,7,8-tetrahydroquinolin-8-yl)cyclopropane-1-carboxamide] | > 10000 nM | 2560 nM |
| Cc1cc(CN(C(=O)C2(c3ccc4c(=O)[nH]nc(CN)c4c3)CC2)C2CCCc3cccnc32)ncc1C(F)(F)F (stereo not drawn) [Example 7, 1-(4-(aminomethyl)-1-oxo-1,2-dihydrophthalazin-6-yl)-N-((4-methyl-5-(trifluoromethyl)pyridin-2-yl)methyl)-N-(5,6,7,8-tetrahydroquinolin-8-yl)cyclopropane-1-carboxamide] | > 10000 nM | 285 nM |
| Cc1nc(CN(C(=O)C2(c3ccc4c(=O)[nH]nc(CN)c4c3)CC2)C2CCCc3cccnc32)ccc1-c1ccccc1 (stereo not drawn) [Example 8, 1-(4-(aminomethyl)-1-oxo-1,2-dihydrophthalazin-6-yl)-N-((6-methyl-5-phenylpyridin-2-yl)methyl)-N-(5,6,7,8-tetrahydroquinolin-8-yl)cyclopropane-1-carboxamide] | 5250 nM | 255 nM |
| NCc1n[nH]c(=O)c2ccc(C3(C(=O)N(Cc4ccc(C(F)(F)F)cn4)Cc4c(F)cccc4Cl)CC3)cc12 [Example 9, 1-(4-(aminomethyl)-1-oxo-1,2-dihydrophthalazin-6-yl)-N-(2-chloro-6-fluorobenzyl)-N-((5-(trifluoromethyl)pyridin-2-yl)methyl)cyclopropane-1-carboxamide] | 4670 nM | 222 nM |
| NCc1n[nH]c(=O)c2ccc(C3(C(=O)N(Cc4ccc(-c5ccccc5)cn4)C4CCCc5cccnc54)CC3)cc12 (stereo not drawn) [Example 10, 1-(4-(aminomethyl)-1-oxo-1,2-dihydrophthalazin-6-yl)-N-((5-phenylpyridin-2-yl)methyl)-N-(5,6,7,8-tetrahydroquinolin-8-yl)cyclopropane-1-carboxamide] | 7230 nM | 18 nM |
| NCc1n[nH]c(=O)c2ccc(C3(C(=O)N(Cc4ccc(-c5ccccc5)cn4)[C@@H]4CCCc5cccnc54)CC3)cc12 [Example 11A, (R)-1-(4-(aminomethyl)-1-oxo-1,2-dihydrophthalazin-6-yl)-N-((5-phenylpyridin-2-yl)methyl)-N-(5,6,7,8-tetrahydroquinolin-8-yl)cyclopropane-1-carboxamide] | 2790 nM | 57 nM |
| NCc1n[nH]c(=O)c2ccc(C3(C(=O)N(Cc4ccc(-c5ccccc5)cn4)[C@H]4CCCc5cccnc54)CC3)cc12 [Example 11B, (S)-1-(4-(aminomethyl)-1-oxo-1,2-dihydrophthalazin-6-yl)-N-((5-phenylpyridin-2-yl)methyl)-N-(5,6,7,8-tetrahydroquinolin-8-yl)cyclopropane-1-carboxamide] | > 10000 nM | 2090 nM |
| Cc1nc(CN(C(=O)C2(c3ccc4c(=O)[nH]nc(CN)c4c3)CC2)C2CCCc3cccnc32)sc1I (stereo not drawn) [Example 12, 1-(4-(aminomethyl)-1-oxo-1,2-dihydrophthalazin-6-yl)-N-((5-iodo-4-methylthiazol-2-yl)methyl)-N-(5,6,7,8-tetrahydroquinolin-8-yl)cyclopropane-1-carboxamide] | 6010 nM | 482 nM |
| N#Cc1cccc(Cl)c1-c1ccc(CN(C(=O)C2(c3ccc4c(=O)[nH]nc(CN)c4c3)CC2)C2CCCc3cccnc32)nc1 (stereo not drawn) [Example 13, 1-(4-(aminomethyl)-1-oxo-1,2-dihydrophthalazin-6-yl)-N-((5-(2-chloro-6-cyanophenyl)pyridin-2-yl)methyl)-N-(5,6,7,8-tetrahydroquinolin-8-yl)cyclopropane-1-carboxamide] | 3950 nM | 62 nM |
| CC(C)(C)c1ccc(CN(C(=O)C2(c3ccc4c(=O)[nH]nc(CN)c4c3)CC2)C2CCCc3cccnc32)nc1 (stereo not drawn) [Example 14, 1-(4-(aminomethyl)-1-oxo-1,2-dihydrophthalazin-6-yl)-N-((5-(tert-butyl)pyridin-2-yl)methyl)-N-(5,6,7,8-tetrahydroquinolin-8-yl)cyclopropane-1-carboxamide] | > 10000 nM | 378 nM |
| NCc1n[nH]c(=O)c2ccc(C3(C(=O)N(Cc4ncc(Br)c5ccccc45)C4CCCc5cccnc54)CC3)cc12 (stereo not drawn) [Example 15, 1-(4-(aminomethyl)-1-oxo-1,2-dihydrophthalazin-6-yl)-N-((4-bromoisoquinolin-1-yl)methyl)-N-(5,6,7,8-tetrahydroquinolin-8-yl)cyclopropane-1-carboxamide] | 5080 nM | 942 nM |
| Cn1nccc1-c1ccc(CN(C(=O)C2(c3ccc4c(=O)[nH]nc(CN)c4c3)CC2)C2CCCc3cccnc32)nc1 (stereo not drawn) [Example 16, 1-(4-(aminomethyl)-1-oxo-1,2-dihydrophthalazin-6-yl)-N-((5-(1-methyl-1H-pyrazol-5-yl)pyridin-2-yl)methyl)-N-(5,6,7,8-tetrahydroquinolin-8-yl)cyclopropane-1-carboxamide] | > 10000 nM | 699 nM |
| COc1ccnc2c1CCCC2N(Cc1ccc(C(F)(F)F)cn1)C(=O)C1(c2ccc3c(=O)[nH]nc(CN)c3c2)CC1 (stereo not drawn) [Example 17, 1-(4-(aminomethyl)-1-oxo-1,2-dihydrophthalazin-6-yl)-N-(4-methoxy-5,6,7,8-tetrahydroquinolin-8-yl)-N-((5-(trifluoromethyl)pyridin-2-yl)methyl)cyclopropane-1-carboxamide] | > 10000 nM | 253 nM |
